Entries after “also recorded” stand apart in the source; their conditions may differ.
How the values were obtained:
bphA gene = experiment: RNA (Northern) blot of bphA gene transcription in mycelia; format: cell-based, Aspergillus niger; settings: 8 mM inducer, RNA blot (FIG. 4)
Procedure: The time course gene expression induction was examined by analyzing total RNA at different times after adding benzoic acid. Northern (RNA) blots were carried out using total RNA extracted from mycelia grown for different periods of time in the presence of benzoic acid. Initially, the fungus was inoculated in CM medium (Pontecorvo (1953) Adv. Genet. 5: 141-238) for 24 hours, transferred to benzoate-containing medium (0.1% w/v) for different times, and total RNA was extracted using the Rneasy Plant Total RNA kit (Qiagen Inc, Valencia, Calif.) according to the manufacturer's instructions. Total RNA was resolved on a formaldehyde-agarose gel and transferred to a Hybond-N nylon membrane (Amersham Life Sci. Inc, Arlington Heights, Ill.). Radiolabeled BPH probe was allowed to hybridize to the membrane, as described above. Northern blot methods were also carried out as recommended (Amersham).
Different benzoate concentrations and inducers were used to better characterize the inducibility of the bphA gene. Gene expression was assayed by Northern blots. Benzoate 4-hydroxylase activity is also assessed by enzymatic assays to confirm the inducibility at the transcriptional level described by Van Gorcom et al. ((1990) Mol. Gen. Genet. 223, 192-197). Inducibility is also verified by reverse transcription of mRNAs produced under induction conditions.
To verify the inducibility of the bphA gene by benzoic acid, A. niger was inoculated in complete medium and grown for 24 hours before being transferred to fresh medium containing 0.1% benzoic acid. Mycelia were harvested after different periods of induction, and total RNA was extracted.

BRE = experiment: Activation of BRE fused to GFP in fungal protoplasts (surface receptor test); format: cell-based
Procedure: While not necessary to understand to practice the invention, a more complicated mechanism of induction may include a surface receptor that binds to benzoate and which then initiates either some kind of signal transduction cascade or the release of a TF that then culminates in the activation of the BPH promoter (FIGS. 12C and D). The hypothesis of a surface receptor was tested by using the p-NH2-benzoate coupled to agarose (as described above) as a non-cleavable external probe. Fungal protoplasts containing the BRE fused to GFP were then prepared, and activation of the BRE (production of the GFP marker) by addition of the agarose-immobilized benzoate derivative to the fungal protoplasts was scored. […] In order to investigate whether the disparity of size between the larger agarose beads and fungal protoplasts may have caused steric problems in binding of the inducer, smaller ligands still incapable of uptake are constructed and utilized to confirm a non-membrane surface location.
The hypothesis of a surface receptor was tested by using the p-NH2-benzoate coupled to agarose (as described above) as a non-cleavable external probe. Fungal protoplasts containing the BRE fused to GFP were then prepared, and activation of the BRE (production of the GFP marker) by addition of the agarose-immobilized benzoate derivative to the fungal protoplasts was scored. […]

BREF51 = experiment: Electrophoretic Mobility Shift Assay (EMSA) with total protein extracts from yeast GAD clones; format: binding, A. niger; settings: 5 μg total yeast protein extract
Source text: The protein encoded by GAD1 (SEQ ID NO:15) is highly similar to a predicted protein present in the A. nidulans genome (E value 2e^−83), and similar to a hypothetical protein (B24P11.210) in the N. crassa genome (E value 4e^−27) (Table 2). GAD1 protein is rich in serine residues (16%), and is predicted by PSORTII (Nakai and Horton (1999) Trends Biochem. Sci. 24: 34-35) to be localized in the nucleus (70.6% probability). […] Serine-rich motifs can be phosphorylation targets by protein kinase C in proteins (Branden and Tooze (1999) Introduction to protein structure, 2nd ed. Garland Publishing, New York, N.Y. 410 p.). […] While not necessary to understand in order to practice the present invention, if GAD1 is involved in the regulation of BPHprom, GAD1 protein might be always bound to a benzoic acid response element in the bphA promoter. […] However, addition of benzoic acid could cause phosphorylation of one of the serine residues in GAD1, leading to its activation. […]
Positive clones identified on the one-hybrid screen were grown in 100 mL of SD/-Leu media, and total proteins were extracted following a modified procedure from that described by Arndt et al. ((1987) Science 237: 874-880). […] Protein concentration of the resulting supernatant was determined by the Bradford method (Bio-Rad, Hercules, Calif.), and BSA was used as a standard.

Molecule	induction of transcription of the bphA gene (bphA gene)	further results
OCc1ccccc1 [benzyl alcohol]	do not induce the promoter	induction of transcription of the bphA gene (bphA gene; listed as Benzyl alcohol): not effective inducers
O=C(O)CCc1ccccc1 [hydrocinnamic acid]	do not induce the promoter; also recorded: not effective inducers	–
COC(=O)c1ccccc1 [methyl benzoate]	can induce the promoter; also recorded: induced	–
Nc1ccc(C(=O)O)cc1 [p-aminobenzoate]	–	GFP fluorescence in the BRE-GFP transformed line (BRE): induced GFP fluorescence
O=C([O-])c1ccccc1.[Na+] [sodium benzoate]	can induce the promoter; also recorded: induced	–
GAD1: protein encoded by yeast one-hybrid clone GAD1 (SEQ ID NO:15), candidate transcription factor binding BREF51 (protein, Aspergillus niger) MVSFKSLLTATTLATAVLAIPHSGHGHGSHKHRSTHVASKRTSSSKRGAAYNSASSVHTLTSGSSGNGTVSWAYDWNMYADGTLPSNVEYVPMLWGSKMFGGWLTAIETALDSGSNYIMGFNEPDSSSQASMTASEAASSYKNYITPYSGKAKLVTPAVTSSTTEGEGLSWMKSFLSECSECDMSVLAVHWYGTSADEFKSFVQEAMQVADDNGLDETWVTEFALTSDESAGGDESSAADFLDEGVGRYAYYMCADGYLLSGEELSSSGKVYVA	–	gel mobility shift of the BREF51 fragment (BREF51): showed a gel mobility shift; also recorded: positive mobility shifts
GAD11: protein encoded by yeast one-hybrid clone GAD11 (SEQ ID NO:17), candidate transcription factor binding BREF51 (protein, Aspergillus niger) DSAESRFSLHSQGSVPPAPSTATKHMTPHNHTNNHGGPLPSKPGSEGASNNGTQITGPHESNLIEQFREREDKLWAYVRSVHEELNGLRTEVAALRAQLASANVNALAMSSQSAPQSQPETNAAGTSQR	–	gel mobility shift of the BREF51 fragment (BREF51): showed a gel mobility shift; also recorded: positive mobility shifts
